Results on one compound are retold here after article PMC8384680 (Journal of pharmaceutical and biomedical analysis, 2021).

Molecules are shown by their SMILES. pIC50: −log10 of the molar value. Converted amounts (≈) assume the structure as drawn.

The nature of series [1]: Stability of JQ1 in microdialysate. It counts as physicochemical.
Series [2] in a line: Stability of primary stock solution. Format: physicochemical. Particulars: stored at −80°C for 88-days, R.S.D ≤ 1.16%.
Series [3] deals with BRD4(1). The conditions noted are these: cell-free assays, ref [10], cited from earlier work.
Series [4] deals with BRD4(2). Particulars: cell-free assays, ref [10], cited from earlier work.

The term pIC50 denotes the negative decadic logarithm of the IC50, by convention in mol/L. Regarding `Cc1sc2c(c1C)C(c1ccc(Cl)cc1)=N[C@@H](CC(=O)OC(C)(C)C)c1nnc(C)n1-2` [JQ1], the “% Mean deviation” value in series [1] (Bench-top 4C: 24h at 4°C, nominal 1.5 ng/mL) came to 5.96%; in series [1] (Bench-top RT: 24h at room temperature, nominal 1.5 ng/mL), 3.23%; in series [1] (Bench-top RT: 24h at room temperature, nominal 400 ng/mL) it was 5.26%; in series [1] (Long-term: 21 days at −80°C, nominal 1.5 ng/mL) it was 12.83%; in series [1] (Long-term: 21 days at −80°C, nominal 400 ng/mL), 5.62%; in series [1] (Process: 48 h in auto sampler at 4°C, nominal 1.5 ng/mL) it was 0.46%. Moreover, the “% Mean deviation” value in series [1] (Process: 48 h in auto sampler at 4°C, nominal 400 ng/mL) came to 1.39%; in series [1] (three freeze-thaw cycles, nominal 1.5 ng/mL) it was 11.77%. The “Autosampler (post-extractive) stability (in words)” value in series [1] (extracted quality control samples, microdialysate, autosampler 48 h) is “stable”. In addition, the “Freeze-thaw stability (in words)” value in series [1] (microdialysate, three freeze-thaw cycles) is listed as “no-stability related issues”. Besides, the “Short-term stability (in words)” value in series [1] (spiked microdialysate, 24 h at 4°C and room temperature) is “stable”. The “Long-term stability (in words)” value in series [1] (spiked microdialysate, −80°C for 21 days) is listed as “confirmed”. Also, in series [2], the “Stability of primary stock solution (in words)” value is given as “stable”. Further, the “IC50 BRD4(1)” value in series [3] was 0.0352 µg/mL (≈ 0.077 µM). For the same compound, the pIC50 was 7.11 in series [3] (read-out: IC50 BRD4(1)) and 7.48 in series [4] (read-out: IC50 BRD4(2)). Moreover, the “IC50 BRD4(2)” value in series [4] was 0.0151 µg/mL (≈ 0.033 µM).
